Measured values published in patent publication US7297682B2, “Diphosphate salt of a 4″—substituted-9-deoxo-9 A—AZA—homoerythromycin derivatives and its pharmaceutical composition” (Pfizer Inc., priority 1999, dated 2007).
Where a name gives a salt, the structure may show the parent alone.

Columns and labels:
[1] = hygroscopicity: water uptake and water content versus relative humidity (VTI, Karl Fisher); format: physicochemical
Procedure: The crystalline diphosphate salt gradually absorbs water to about 13% at 87% relative humidity with a rapid uptake of water to about 48% occurring at about 90% relative humidity. Thermogravametric analysis on the diphosphate salt discloses that three waters are lost by about 75° C., a fourth water is lost by about 120° C., the fifth water is lost by about 170° C., and the final three waters are lost by about 200° C. The maximum number of water molecules necessary for the stabilization of the crystalline lattice appears to be about eight. Drying the diphosphate salt in about 70° C. in air or about 45° C. in a vacuum removed the water leaving a pseudomorph.
Drying in the VTI at 20-25° C. indicated a weight loss of 10%; the dried salt gradually adsorbed water to 15% at 85% RH (relative humidity), followed by a rapid uptake to 48% at 90% RH. At 90% RH, the compound deliquesced.
The mobility of the water within the crystalline lattice is directly related to the relative humidity of the environment the diphosphate salt comes in contact with. For example, at about 87% relative humidity, the compound contains about 13% water; at 60% relative humidity the compound contains about 8% water; and at 40% relative humidity the diphosphate salt contains about 5% water (all calculations by KF).
Both the liquid crystal and the crystalline form of the diphosphate were hygroscopic. When attempts were conducted in hydrophilic solvents, the addition of 4% to 5% (v/v) water to the amorphous slurry caused the compound to crystallize as an octahydate.

physchem = format: physicochemical; conditions: water

## CCCNC[C@]1(O)C(C)OC(OC2C(C)C(=O)OC(CC)[C@@](C)(O)[C@H](O)[C@@H](C)NC[C@H](C)C[C@](C)(O)[C@H](OC3OC(C)CC(N(C)C)[C@H]3O)C2C)C[C@@]1(C)OC (stereo partly drawn) [crystalline diphosphate salt, (2R,3S,4R,5R,8R,10R,11R,12S,13S,14R)-13-[[2,6-dideoxy-3-C-methyl-3-O-methyl-4-C-[(propylamino)methyl]-α-L-ribo-hexopryanosyl]oxy]-2-ethyl-3,4,10-trihydroxy-3,5,8,10,12,14-hexamethyl-11-[[3,4,6-trideoxy-3-(dimethylamino)-β-D-xylo-hexopyranosyl]oxy]-1-oxa-6-azacyclopentadecan-15-one diphosphate]
[1]; after drying in the VTI at 20-25° C., at 85% RH
  water adsorbed (gradual) by dried salt: 15%
[1]; after drying in the VTI at 20-25° C., at 90% RH
  rapid uptake of water by dried salt: 48%
[1]; at 40% relative humidity
  water content (by KF): about 5%
[1]; at 60% relative humidity
  water content (by KF): about 8%
[1]; at 87% relative humidity
  water absorbed (gradual): about 13%
[1]; at 90% RH
  behaviour at high humidity: deliquesced
[1]; at about 87% relative humidity
  water content (by KF): about 13%
[1]; at about 90% relative humidity
  rapid uptake of water: about 48%
physchem
  solubility: ~280 mg/mL

## CCCNC[C@]1(O)C(C)OC(OC2C(C)C(=O)OC(CC)[C@@](C)(O)[C@H](O)[C@@H](C)NC[C@H](C)C[C@](C)(O)[C@H](OC3OC(C)CC(N(C)C)[C@H]3O)C2C)C[C@@]1(C)OC (stereo partly drawn) [liquid crystal, (2R,3S,4R,5R,8R,10R,11R,12S,13S,14R)-13-[[2,6-dideoxy-3-C-methyl-3-O-methyl-4-C-[(propylamino)methyl]-α-L-ribo-hexopryanosyl]oxy]-2-ethyl-3,4,10-trihydroxy-3,5,8,10,12,14-hexamethyl-11-[[3,4,6-trideoxy-3-(dimethylamino)-β-D-xylo-hexopyranosyl]oxy]-1-oxa-6-azacyclopentadecan-15-one diphosphate]
[1]
  hygroscopicity: hygroscopic
